Experimental data taken from ChEMBL document CHEMBL6182857, “Targeting biofilm formation in Candida albicans with halogenated pyrrolopyrimidine derivatives” (Eur J Med Chem, 2025).
Activity calls are given as the source filed them. No cut-off for these calls is given here.

Experiments:
[1] = tested on: Candida albicans; assay: Downregulation of ALS3 mRNA level in fluconazole-resistant Candida albicans DAY185 assessed as fold decrease at 50 ug/ml incubated for 6 hrs by qRT-PCR analysis relative to control; assay type: functional; conditions: dose 50.0 µg/ml
[2] = tested on: Candida albicans; assay: Upregulation of ZAP1 mRNA level in fluconazole-resistant Candida albicans DAY185 assessed as fold increase at 50 ug/ml incubated for 6 hrs by qRT-PCR analysis relative to control; assay type: functional; conditions: dose 50.0 µg/ml
[3] = tested on: Candida albicans; assay: Inhibition of yeast to hypha transition in fluconazole-resistant Candida albicans DAY185 assessed as decrease in hyphal development at >=10 ug/ml measured after 24 hrs by SEM analysis relative to control; assay type: functional; conditions: dose >= 10 µg/ml
[4] = tested on: Candida albicans; assay: Downregulation of HWP1 mRNA level in fluconazole-resistant Candida albicans DAY185 assessed as fold decrease at 50 ug/ml incubated for 6 hrs by qRT-PCR analysis relative to control; assay type: functional; conditions: dose 50.0 µg/ml
[5] = tested on: Candida albicans; assay: Antibiofilm activity against fluconazole-resistant Candida albicans DAY185 assessed as inhibition of biofilm formation on bio-compatible PLGA surface coated with compound at 5 to 10 ug/ml incubated for 24 hrs by CLSM analysis; assay type: functional, organism-based; conditions: dose 5-10 µg/ml
[6] = tested on: Candida albicans; assay: Antibiofilm activity against fluconazole-resistant Candida albicans DAY185 assessed as reduction in mean biofilm thickness on bio-compatible PLGA surface coated with compound incubated for 24 hrs by COMSTAT analysis; assay type: functional, organism-based
[7] = tested on: [Candida] auris; assay: Antibiofilm activity against Candida auris KCTC 17809 assessed as inhibition of biofilm formation by crystal violet staining based analysis; assay type: functional, organism-based; conditions: Candidozyma auris
[8] = tested on: Candida albicans; assay: Antibiofilm activity against fluconazole-resistant Candida albicans DAY185 assessed as inhibition of biofilm formation at 7 ug/ml measured after 24 hrs by crystal violet staining based analysis relative to control; assay type: functional
[9] = tested on: Candida albicans; assay: Antibiofilm activity against fluconazole-resistant Candida albicans DAY185 assessed as reduction in biofilm thickness on bio-compatible PLGA surface coated with compound at 5 to 10 ug/ml incubated for 24 hrs by CLSM analysis; assay type: functional, organism-based; conditions: dose 5-10 µg/ml
[10] = tested on: Candida albicans; assay: Antibiofilm activity against fluconazole-resistant Candida albicans DAY185 assessed as inhibition of biofilm formation at 5 ug/ml measured after 24 hrs by 2D/3D imaging analysis; assay type: functional, organism-based; conditions: dose 5.0 µg/ml
[11] = tested on: [Candida] auris; assay: Antibiofilm activity against Candida auris KCTC 17810 assessed as inhibition of biofilm formation by crystal violet staining based analysis; assay type: functional, organism-based; conditions: Candidozyma auris
[12] = tested on: Candida albicans; assay: Additive antibiofilm activity against fluconazole-resistant Candida albicans DAY185 assessed as inhibition of biofilm formation at 5 ug/ml measured after 24 hrs in presence of BTZ by crystal violet staining based analysis relative to control; assay type: functional, organism-based; conditions: dose 5.0 µg/ml
[13] = tested on: Candida albicans; assay: Upregulation of CDR11 mRNA level in fluconazole-resistant Candida albicans DAY185 assessed as fold increase at 50 ug/ml incubated for 6 hrs by qRT-PCR analysis relative to control; assay type: functional; conditions: dose 50.0 µg/ml
[14] = tested on: Candida albicans; assay: Inhibition of yeast to hypha transition in fluconazole-resistant Candida albicans DAY185 assessed as decrease in cell aggregation at 5 to 20 ug/ml measured after 24 hrs by SEM analysis; assay type: functional, organism-based; conditions: dose 5-20 µg/ml
[15] = tested on: Candida albicans; assay: Antibiofilm activity against fluconazole-resistant Candida albicans DAY185 assessed as inhibition of biofilm formation at 50 ug/ml measured after 24 hrs by crystal violet staining based analysis relative to control; assay type: functional
[16] = tested on: Candida albicans; assay: Antibiofilm activity against Candida albicans ATCC 10231 assessed as inhibition of biofilm formation by crystal violet staining based analysis; assay type: functional, organism-based
[17] = tested on: Candida albicans; assay: Antibiofilm activity against Candida albicans KCCM 12552 assessed as inhibition of biofilm formation by crystal violet staining based analysis; assay type: functional, organism-based
[18] = tested on: Candida albicans; assay: Effect on UME6 mRNA level in fluconazole-resistant Candida albicans DAY185 at 50 ug/ml incubated for 6 hrs by qRT-PCR analysis; assay type: functional; conditions: dose 50.0 µg/ml
[19] = tested on: Candida albicans; assay: Upregulation of GST3 mRNA level in fluconazole-resistant Candida albicans DAY185 assessed as fold increase at 50 ug/ml incubated for 6 hrs by qRT-PCR analysis relative to control; assay type: functional; conditions: dose 50.0 µg/ml
[20] = tested on: Candida albicans; assay: Downregulation of ECE1 mRNA level in fluconazole-resistant Candida albicans DAY185 assessed as fold decrease at 50 ug/ml incubated for 6 hrs by qRT-PCR analysis relative to control; assay type: functional; conditions: dose 50.0 µg/ml
[21] = tested on: Candida albicans; assay: Inhibition of yeast to hypha transition in fluconazole-resistant Candida albicans DAY185 assessed as decrease in germ tube formation at 5 to 20 ug/ml measured after 24 hrs by SEM analysis; assay type: functional, organism-based; conditions: dose 5-20 µg/ml
[22] = tested on: Candida albicans; assay: Upregulation of YWP1 mRNA level in fluconazole-resistant Candida albicans DAY185 assessed as fold increase at 50 ug/ml incubated for 6 hrs by qRT-PCR analysis relative to control; assay type: functional; conditions: dose 50.0 µg/ml
[23] = tested on: Candida albicans; assay: Antibiofilm activity against fluconazole-resistant Candida albicans DAY185 assessed as inhibition of biofilm formation at 10 to 20 ug/ml measured after 24 hrs by 2D/3D imaging analysis relative to control; assay type: functional; conditions: dose 10-20 µg/ml, at 10 to 20 µg/mL
[24] = tested on: Candida albicans; assay: Antibiofilm activity against fluconazole-resistant Candida albicans DAY185 assessed as reduction in biofilm mass on bio-compatible PLGA surface coated with compound incubated for 24 hrs by COMSTAT analysis; assay type: functional, organism-based
[25] = tested on: Candida albicans; assay: Inhibition of yeast to hypha transition in fluconazole-resistant Candida albicans DAY185 assessed as decrease in hyphal adhesion at 5 to 20 ug/ml measured after 24 hrs by SEM analysis; assay type: functional, organism-based; conditions: dose 5-20 µg/ml
[26] = tested on: Candida albicans; assay: Additive antibiofilm activity against fluconazole-resistant Candida albicans DAY185 assessed as inhibition of biofilm formation at 5 ug/ml measured after 24 hrs in presence of AMB by crystal violet staining based analysis relative to control; assay type: functional, organism-based; conditions: dose 5.0 µg/ml
[27] = tested on: Candida albicans; assay: Inhibition of yeast to hypha transition in fluconazole-resistant Candida albicans DAY185 assessed as decrease in hyphal growth at 5 to 20 ug/ml measured after 24 hrs by SEM analysis; assay type: functional, organism-based; conditions: dose 5-20 µg/ml
[28] = tested on: Candida albicans; assay: Antibiofilm activity against fluconazole-resistant Candida albicans DAY185 assessed as reduction in overall biofilm mass on bio-compatible PLGA surface coated with compound at 5 to 10 ug/ml incubated for 24 hrs by CLSM analysis; assay type: functional, organism-based; conditions: dose 5-10 µg/ml
[29] = tested on: Candida albicans; assay: Upregulation of UCF1 mRNA level in fluconazole-resistant Candida albicans DAY185 assessed as fold increase at 50 ug/ml incubated for 6 hrs by qRT-PCR analysis relative to control; assay type: functional; conditions: dose 50.0 µg/ml
[30] = tested on: Candida albicans; assay: Inhibition of yeast to hypha transition in fluconazole-resistant Candida albicans DAY185 assessed as decrease in filamentous growth at 5 to 20 ug/ml measured after 24 hrs by SEM analysis; assay type: functional, organism-based; conditions: dose 5-20 µg/ml
[31] = tested on: Candida albicans; assay: Antibiofilm activity against fluconazole-resistant Candida albicans DAY185 assessed as reduction in substratum coverage on bio-compatible PLGA surface coated with compound at 5 ug/ml incubated for 24 hrs by COMSTAT analysis; assay type: functional, organism-based; conditions: dose 5.0 µg/ml
[32] = tested on: Candida albicans; assay: Antibiofilm activity against fluconazole-resistant Candida albicans DAY185 assessed as inhibition of biofilm formation at 5 ug/ml measured after 24 hrs by crystal violet staining based analysis; assay type: functional, organism-based; conditions: dose 5.0 µg/ml
[33] = tested on: Candida albicans; assay: Upregulation of IFD6 mRNA level in fluconazole-resistant Candida albicans DAY185 assessed as fold increase at 50 ug/ml incubated for 6 hrs by qRT-PCR analysis relative to control; assay type: functional; conditions: dose 50.0 µg/ml
[34] = Toxicity in Caenorhabditis elegans assessed as nematode survival at higher concentrations treated for 10 days; conditions: 240 h, time 10 day
[35] = tested on: Brassica rapa; assay: Toxicity in Brassica rapa assessed as seed germination rate at 10 to 100 ug/ml treated for 4 days relative to control; assay type: organism-based; conditions: in vivo, 96 h, at 10 to 100 µg/mL, dose 10-100 µg/ml, time 4 day

Clc1nc(Cl)c2c(I)c[nH]c2n1
fold change (FC) [1]: 8 | fold change (FC) [2]: 10 | inhibition (INH) [3]: 100% | fold change (FC) [4]: 57 | inhibition [5]: Active; Significant Effect Even At Lower Concentration | Activity [6]: Dose-dependent-effect; Nearly Undetectable Levels Were Observed At 5 Ug/Ml | inhibition [7]: Dose-dependent-effect | inhibition at 7 µg/mL [8]: 100% | Activity [9]: Active; More Pronounced Effects Were Observed At Higher Concentration | inhibition [10]: Active | inhibition [11]: Dose-dependent-effect | inhibition [12]: Active | fold change (FC) [13]: 138 | inhibition [14]: Active | inhibition at 50 µg/mL [15]: > 85% | inhibition [16]: Dose-dependent-effect | inhibition [17]: Dose-dependent-effect | Activity [18]: No effect | fold change (FC) [19]: 58 | fold change (FC) [20]: 143 | inhibition [21]: Active | fold change (FC) [22]: 55 | inhibition (INH) [23]: ~100% | Activity [24]: Dose-dependent-effect; Nearly Undetectable Levels Were Observed At 5 Ug/Ml | inhibition [25]: Active | inhibition [26]: Active | inhibition [27]: Active | Activity [28]: Active; More Pronounced Effects Were Observed At Higher Concentration | fold change (FC) [29]: 37 | inhibition [30]: Active | Activity [31]: Active | inhibition [32]: Active | fold change (FC) [33]: 82 | Activity [34]: Toxic | Activity [35]: > 90%
